Measured values taken from publication PMC10175918 (Communications Biology, 2023).
Like-named read-outs stand apart in the source and are kept apart here.

Assays:
Test in all cases: TGFα-shedding assay-based GPCR screening with chimeric Gα subunit proteins
Type in all cases: cell-based
[1] = target: T1, 348 GPCRs (Homo sapiens, UniProt Q8WXD0); settings: RXFP2 (relaxin/insulin-like family peptide receptor 2); 10µM, Favipiravir 100μM
T1 construct: expressed in transfected cells; host or cells: HEK293A

[2] = target: T2, 348 GPCRs (Homo sapiens, UniProt P48960)
T2 construct: expressed in transfected cells; host or cells: HEK293A
T2 sequence (P48960 21-835): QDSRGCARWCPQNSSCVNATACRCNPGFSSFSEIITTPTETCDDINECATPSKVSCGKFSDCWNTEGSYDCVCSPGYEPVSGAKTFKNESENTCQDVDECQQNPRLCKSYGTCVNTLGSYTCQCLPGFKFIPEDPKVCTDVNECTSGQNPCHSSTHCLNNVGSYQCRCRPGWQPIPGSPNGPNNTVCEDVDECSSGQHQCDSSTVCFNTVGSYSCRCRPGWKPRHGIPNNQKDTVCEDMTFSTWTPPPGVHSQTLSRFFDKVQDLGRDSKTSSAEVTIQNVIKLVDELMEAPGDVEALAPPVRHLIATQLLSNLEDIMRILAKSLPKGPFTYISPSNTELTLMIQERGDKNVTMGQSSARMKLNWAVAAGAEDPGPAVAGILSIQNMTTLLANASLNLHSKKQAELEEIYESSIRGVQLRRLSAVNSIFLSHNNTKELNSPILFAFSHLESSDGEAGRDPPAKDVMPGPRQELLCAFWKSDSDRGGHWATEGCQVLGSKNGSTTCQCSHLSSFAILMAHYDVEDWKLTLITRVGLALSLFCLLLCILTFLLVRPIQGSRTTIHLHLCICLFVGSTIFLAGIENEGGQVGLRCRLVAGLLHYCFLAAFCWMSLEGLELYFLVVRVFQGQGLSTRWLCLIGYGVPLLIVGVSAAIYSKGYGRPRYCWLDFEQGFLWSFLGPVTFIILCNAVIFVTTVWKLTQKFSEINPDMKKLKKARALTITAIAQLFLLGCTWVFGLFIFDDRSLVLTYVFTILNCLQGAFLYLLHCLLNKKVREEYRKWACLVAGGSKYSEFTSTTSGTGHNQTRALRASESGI

[3] = target: T3, 348 GPCRs (Homo sapiens, UniProt P32302)
T3 construct: expressed in transfected cells; host or cells: HEK293A
T3 sequence (P32302 1-372): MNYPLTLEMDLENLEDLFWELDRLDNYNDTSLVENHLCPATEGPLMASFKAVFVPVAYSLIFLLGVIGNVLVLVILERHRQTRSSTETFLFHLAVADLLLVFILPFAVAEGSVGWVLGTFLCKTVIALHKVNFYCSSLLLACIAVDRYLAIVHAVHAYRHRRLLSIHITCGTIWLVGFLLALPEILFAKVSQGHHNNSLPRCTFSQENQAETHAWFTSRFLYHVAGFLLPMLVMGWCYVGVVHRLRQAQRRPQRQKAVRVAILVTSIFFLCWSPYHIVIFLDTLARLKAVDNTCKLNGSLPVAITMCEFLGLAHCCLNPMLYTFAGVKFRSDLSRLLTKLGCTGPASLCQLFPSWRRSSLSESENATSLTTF

[4] = target: T4, 348 GPCRs (Homo sapiens, UniProt P51677); settings: 10µM, Favipiravir 100μM
T4 construct: expressed in transfected cells; host or cells: HEK293A
T4 sequence (P51677 1-355): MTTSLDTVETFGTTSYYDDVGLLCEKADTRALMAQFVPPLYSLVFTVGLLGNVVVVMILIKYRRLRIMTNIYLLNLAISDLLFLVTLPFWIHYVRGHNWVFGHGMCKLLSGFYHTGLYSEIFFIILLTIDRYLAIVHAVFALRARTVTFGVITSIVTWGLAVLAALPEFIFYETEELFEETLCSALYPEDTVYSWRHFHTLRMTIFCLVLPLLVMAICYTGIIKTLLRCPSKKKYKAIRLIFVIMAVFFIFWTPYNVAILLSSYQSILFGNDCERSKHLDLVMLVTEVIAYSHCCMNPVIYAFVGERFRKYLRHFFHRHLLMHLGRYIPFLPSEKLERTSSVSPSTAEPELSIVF

[5] = target: T5, 348 GPCRs (Homo sapiens, UniProt Q969N4); settings: 10µM, Favipiravir 100μM
T5 construct: expressed in transfected cells; host or cells: HEK293A
T5 sequence (Q969N4 1-342): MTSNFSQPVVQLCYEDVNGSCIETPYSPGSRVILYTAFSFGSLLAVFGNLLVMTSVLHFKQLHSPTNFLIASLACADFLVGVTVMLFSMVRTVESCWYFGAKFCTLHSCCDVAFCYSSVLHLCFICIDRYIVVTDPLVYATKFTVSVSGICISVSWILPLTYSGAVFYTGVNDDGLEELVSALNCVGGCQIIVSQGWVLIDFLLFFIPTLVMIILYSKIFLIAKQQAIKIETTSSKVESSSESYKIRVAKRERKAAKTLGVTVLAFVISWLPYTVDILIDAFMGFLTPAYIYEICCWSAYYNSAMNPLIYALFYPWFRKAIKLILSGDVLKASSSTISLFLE

[6] = target: T6, 348 GPCRs (Homo sapiens, UniProt Q8TCW9)
T6 construct: expressed in transfected cells; host or cells: HEK293A

[7] = target: T7, 348 GPCRs (Homo sapiens, UniProt Q99788); settings: GPCR CMKLR1 (chemerin chemokine-like receptor 1)
T7 construct: expressed in transfected cells; host or cells: HEK293A
T7 sequence (Q99788 1-373): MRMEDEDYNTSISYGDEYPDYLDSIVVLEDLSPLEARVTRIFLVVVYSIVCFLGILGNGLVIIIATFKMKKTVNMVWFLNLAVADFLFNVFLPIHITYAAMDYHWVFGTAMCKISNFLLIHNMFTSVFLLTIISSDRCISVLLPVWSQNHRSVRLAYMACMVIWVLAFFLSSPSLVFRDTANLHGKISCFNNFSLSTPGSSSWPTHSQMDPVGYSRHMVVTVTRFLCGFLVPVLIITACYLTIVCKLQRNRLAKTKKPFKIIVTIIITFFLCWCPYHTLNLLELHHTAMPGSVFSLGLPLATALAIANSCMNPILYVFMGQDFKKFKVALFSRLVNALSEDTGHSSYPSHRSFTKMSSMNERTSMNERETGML

[8] = target: 348 GPCRs (Homo sapiens, UniProt P41595); settings: 10µM, Favipiravir 100μM
[9] = read-out: % GPCR activation compared to TPA, GPCR CD97 (adhesion G protein-coupled receptor E5)
[10] = read-out: % GPCR activation compared to TPA, GPCR CXCR5 (C-X-C motif chemokine receptor 5)
[11] = read-out: % GPCR activation compared to TPA, CCR3 (C-C motif chemokine receptor 3)
[12] = read-out: % GPCR activation compared to TPA, TAAR8 (trace amine associated receptor 8)
[13] = read-out: % GPCR activation compared to TPA, GPCR PK1 (prokineticin receptor 1)
[14] = read-out: % GPCR activation compared to TPA, HTR2B (5-hydroxytryptamine (serotonin) receptor 2B)
[15] = GPCR CD97 (adhesion G protein-coupled receptor E5), read-out: % GPCR activation compared to TPA
[16] = GPCR CXCR5 (C-X-C motif chemokine receptor 5), read-out: % GPCR activation compared to TPA
[17] = CCR3 (C-C motif chemokine receptor 3), read-out: % GPCR activation compared to TPA
[18] = TAAR8 (trace amine associated receptor 8), read-out: % GPCR activation compared to TPA
[19] = GPCR PK1 (prokineticin receptor 1), read-out: % GPCR activation compared to TPA
[20] = HTR2B (5-hydroxytryptamine (serotonin) receptor 2B), read-out: % GPCR activation compared to TPA

T6 sequence (Q8TCW9 whole entry): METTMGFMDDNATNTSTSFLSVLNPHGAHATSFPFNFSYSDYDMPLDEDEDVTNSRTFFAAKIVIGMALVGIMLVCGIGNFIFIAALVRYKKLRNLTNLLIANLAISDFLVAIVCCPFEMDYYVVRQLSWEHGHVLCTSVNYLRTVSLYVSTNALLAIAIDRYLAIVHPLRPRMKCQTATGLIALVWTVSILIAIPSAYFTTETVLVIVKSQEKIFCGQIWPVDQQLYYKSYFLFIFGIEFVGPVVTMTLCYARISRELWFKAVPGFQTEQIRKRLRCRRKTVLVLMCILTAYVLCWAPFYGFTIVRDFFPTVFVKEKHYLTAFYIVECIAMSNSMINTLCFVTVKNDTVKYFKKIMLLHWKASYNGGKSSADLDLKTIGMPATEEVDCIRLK
348 GPCRs (Homo sapiens, UniProt P41595), sequence (P41595 whole entry): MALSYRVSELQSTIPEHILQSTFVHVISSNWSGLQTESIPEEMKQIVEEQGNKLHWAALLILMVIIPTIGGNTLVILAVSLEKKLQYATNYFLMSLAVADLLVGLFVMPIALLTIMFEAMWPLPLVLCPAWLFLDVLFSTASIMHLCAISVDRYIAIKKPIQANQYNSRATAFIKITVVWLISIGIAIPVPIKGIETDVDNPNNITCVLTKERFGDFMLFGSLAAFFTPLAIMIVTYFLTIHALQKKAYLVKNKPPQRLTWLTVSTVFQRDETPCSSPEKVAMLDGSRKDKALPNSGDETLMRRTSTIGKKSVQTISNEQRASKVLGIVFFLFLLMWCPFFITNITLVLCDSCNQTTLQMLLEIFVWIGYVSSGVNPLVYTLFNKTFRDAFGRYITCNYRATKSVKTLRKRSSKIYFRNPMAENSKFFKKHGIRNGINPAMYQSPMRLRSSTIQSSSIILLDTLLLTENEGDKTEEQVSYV
T1 sequence (Q8WXD0 whole entry): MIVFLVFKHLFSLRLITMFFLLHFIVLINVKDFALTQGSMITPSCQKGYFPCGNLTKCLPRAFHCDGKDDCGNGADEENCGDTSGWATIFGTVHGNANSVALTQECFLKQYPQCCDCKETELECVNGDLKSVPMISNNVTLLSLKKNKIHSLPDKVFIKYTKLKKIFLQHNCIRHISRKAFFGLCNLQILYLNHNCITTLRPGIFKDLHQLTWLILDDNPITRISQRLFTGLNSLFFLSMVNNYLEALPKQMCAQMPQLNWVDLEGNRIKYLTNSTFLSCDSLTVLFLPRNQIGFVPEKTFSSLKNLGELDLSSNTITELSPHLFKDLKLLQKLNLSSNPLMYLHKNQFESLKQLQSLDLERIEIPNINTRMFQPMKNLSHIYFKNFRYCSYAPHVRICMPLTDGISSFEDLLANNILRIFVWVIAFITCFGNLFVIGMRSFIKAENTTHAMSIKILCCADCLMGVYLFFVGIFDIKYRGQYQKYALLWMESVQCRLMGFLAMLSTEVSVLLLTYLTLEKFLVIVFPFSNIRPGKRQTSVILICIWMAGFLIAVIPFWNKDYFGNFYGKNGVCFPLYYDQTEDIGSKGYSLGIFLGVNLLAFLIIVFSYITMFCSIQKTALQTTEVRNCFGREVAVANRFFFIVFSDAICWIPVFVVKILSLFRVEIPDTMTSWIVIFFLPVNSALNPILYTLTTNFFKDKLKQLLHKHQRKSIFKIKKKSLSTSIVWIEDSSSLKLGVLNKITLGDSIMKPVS

In the case of `CC(C)OC(=O)[C@H](C)N[P@](=O)(OC[C@H]1O[C@@H](n2ccc(=O)[nH]c2=O)[C@](C)(F)[C@@H]1O)Oc1ccccc1` [sofosbuvir], the “% GPCR activation compared to TPA” value [1] is reported as -1.511%, the activation at 10 µM [2, 9] is reported as -1.88% and the activation at 10 µM [3, 10] is reported as -0.968%. The activation at 100 µM [4, 11] was -1.65%, the activation at 100 µM [5, 12] was -2.21% and the activation at 10 µM [6, 13] was -1.13%. The “% GPCR activation compared to TPA” value ([7]; 10µM) was -0.9389% and the activation at 100 µM [8, 14] was -0.398%.

For `CC(C)C(=O)OC[C@H]1O[C@@H](n2ccc(NO)nc2=O)[C@H](O)[C@@H]1O` [molnupiravir], the “% GPCR activation compared to TPA” value [1] was -1.679%, the activation at 10 µM [2, 15] was -0.34% and the activation at 10 µM [3, 16] was -2%. The activation at 100 µM [4, 17] was -0.741%, the activation at 100 µM [5, 18] was -0.135% and the activation at 10 µM [6, 19] was -3.53%. For the same compound, the “% GPCR activation compared to TPA” value ([7]; 10µM) was -0.3127% and the activation at 100 µM [8, 20] was -1.16%.

`NC(=O)c1nc(F)cnc1O` [favipiravir, 6-fluoro-3-hydroxy-2-pyrazinecarboxamide] was tested, and the “% GPCR activation compared to TPA” value [1] was -0.6733%, the activation at 100 µM ([2]; GPCR CD97 (adhesion G protein-coupled receptor E5), 100μM, read-out: % GPCR activation compared to TPA) was -3.34% and the activation at 100 µM ([3]; GPCR CXCR5 (C-X-C motif chemokine receptor 5), 100μM, read-out: % GPCR activation compared to TPA) was -2.18%. For the same compound, the activation at 100 µM [4, 17] was 2.7%, the activation at 100 µM [5, 18] was 0.473% and the activation at 100 µM ([6]; GPCR PK1 (prokineticin receptor 1), 100μM, read-out: % GPCR activation compared to TPA) was -2.82%. For the same compound, the “% GPCR activation compared to TPA” value ([7]; 100μM) was 2.983% and the activation at 100 µM [8, 20] was 0.187%.

`N#C[C@@]1(c2ccc3c(N)ncnn23)O[C@H](CO)[C@@H](O)[C@H]1O` [GS441524] was tested, and the “% GPCR activation compared to TPA” value [1] was -1.305%, the activation at 10 µM [2, 15] was -3.9% and the activation at 10 µM [3, 16] was -2.05%. The activation at 100 µM [4, 17] was 3.06%, the activation at 100 µM [5, 18] was -1.62% and the activation at 10 µM [6, 19] was -2.68%. For the same compound, the “% GPCR activation compared to TPA” value ([7]; 10µM) was -4.934% and the activation at 100 µM [8, 20] was 0.0796%.

In the case of `CCC(CC)COC(=O)[C@H](C)N[P@](=O)(OC[C@H]1O[C@@](C#N)(c2ccc3c(N)ncnn23)[C@H](O)[C@@H]1O)Oc1ccccc1` [remdesivir], the “% GPCR activation compared to TPA” value [1] is reported as 0.3691%, the activation at 10 µM [2, 9] is reported as 1.2% and the activation at 10 µM [3, 10] is reported as -0.166%. The activation at 100 µM [4, 11] was 7.61%, the activation at 100 µM [5, 12] was 0.465% and the activation at 10 µM [6, 13] was -3.33%. For the same compound, the “% GPCR activation compared to TPA” value ([7]; 10µM) was -1.376% and the activation at 100 µM [8, 14] was -4.14%.
